# Paper PMC9405973, “Altered Conformational Landscape upon Sensing Guanine Nucleotides in a Disease Mutant of Elongation Factor-like 1 (EFL1) GTPase” (Biomolecules, 2022)
# Molecular target: T1, Efl1 mutant T33A in complex with Sdo1 and the 60S subunits (Saccharomyces cerevisiae, UniProt P53893, T33A)
# T1 construct: made in house; host or cells: Efl1: Saccharomyces cerevisiae; Sdo1: Escherichia coli C41; 60S subunits purified from S. cerevisiae strain JD1370
# T1 sequence (P53893 1-1110 T33A): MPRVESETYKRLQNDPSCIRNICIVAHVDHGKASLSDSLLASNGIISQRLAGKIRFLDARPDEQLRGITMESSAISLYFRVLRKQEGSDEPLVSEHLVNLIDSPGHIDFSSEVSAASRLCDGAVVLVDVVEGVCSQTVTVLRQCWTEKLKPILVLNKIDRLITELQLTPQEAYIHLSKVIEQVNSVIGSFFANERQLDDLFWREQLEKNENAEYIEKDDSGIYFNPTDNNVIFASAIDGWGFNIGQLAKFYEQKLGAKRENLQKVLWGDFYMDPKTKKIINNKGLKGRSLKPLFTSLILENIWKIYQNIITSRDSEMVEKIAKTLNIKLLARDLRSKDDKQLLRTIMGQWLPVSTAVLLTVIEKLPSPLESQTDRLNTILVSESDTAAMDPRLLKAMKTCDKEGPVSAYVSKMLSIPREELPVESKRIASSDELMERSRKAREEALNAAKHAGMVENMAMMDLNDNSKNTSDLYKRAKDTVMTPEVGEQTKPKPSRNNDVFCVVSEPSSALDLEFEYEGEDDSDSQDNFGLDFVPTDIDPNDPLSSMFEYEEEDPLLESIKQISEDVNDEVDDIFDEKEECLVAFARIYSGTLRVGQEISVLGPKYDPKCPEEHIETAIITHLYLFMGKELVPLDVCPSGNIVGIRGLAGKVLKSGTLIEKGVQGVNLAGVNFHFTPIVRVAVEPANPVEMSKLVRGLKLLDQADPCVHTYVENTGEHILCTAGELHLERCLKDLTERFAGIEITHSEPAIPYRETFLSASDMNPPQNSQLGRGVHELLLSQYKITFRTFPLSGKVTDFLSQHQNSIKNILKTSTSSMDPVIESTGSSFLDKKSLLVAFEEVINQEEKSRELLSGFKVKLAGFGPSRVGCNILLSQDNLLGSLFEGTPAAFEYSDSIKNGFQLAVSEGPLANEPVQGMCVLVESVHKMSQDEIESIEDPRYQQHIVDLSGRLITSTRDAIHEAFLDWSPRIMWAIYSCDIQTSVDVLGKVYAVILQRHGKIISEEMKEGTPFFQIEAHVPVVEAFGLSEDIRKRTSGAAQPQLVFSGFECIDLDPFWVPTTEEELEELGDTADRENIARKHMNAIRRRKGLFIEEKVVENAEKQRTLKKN
# T1 sequence (Q07953 1-250 partner): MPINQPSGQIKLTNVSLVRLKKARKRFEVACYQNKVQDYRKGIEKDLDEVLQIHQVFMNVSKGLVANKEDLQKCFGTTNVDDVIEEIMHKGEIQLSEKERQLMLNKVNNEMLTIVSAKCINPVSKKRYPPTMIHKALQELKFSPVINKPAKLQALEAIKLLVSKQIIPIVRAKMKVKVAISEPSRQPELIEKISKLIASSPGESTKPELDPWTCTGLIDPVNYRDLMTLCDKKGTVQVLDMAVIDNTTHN
# Assay: Steady state fluorescence binding of mant-GTP to Efl1 T33A in complex with Sdo1 and 60S subunits
# Details: 25 °C, one-binding-site model; read-out: dissociation constant (Kd)
# Protocol: We measured the binding of different Efl1 constructs present in complex with Sdo1 and 60S subunits to the fluorescence GTP analogue, mant-GTP, by following the increase in the fluorescence signal after excitation at 355 nm. Fluorescence intensities were plotted as a function of increasing nucleotide concentrations, and the dissociation constant (Kd) was calculated by fitting the data to a one-binding-site model (Supplementary Figure S1B).
# Hydrolysis of GTP was measured using the Enzchek Phosphate Assay kit (Molecular Probes) as described by Webb. Standard reactions consisted of 100 µL containing 6 µM of Efl1 R1086Q and Efl1 L910K, 0.3 mM MESG, 1.0 U purine nucleoside phosphorylase (PNP) and the indicated amounts of GTP. […]
# Reactions were initiated and the GTPase was added after 3 min. Time courses were followed by recording the change in absorbance at 360 nm in a Cary 60 UV -Vis spectrophotometer (Agilent Technologies). Background absorbance was recorded prior to the addition of the GTPase and subtracted from the sample signals. The slope of the measured time courses corresponded to the GTP hydrolysis rate. […] Data were analysed by nonlinear regression to the M ichaelis-Menten equation with the program Origin Version 5.0 (OriginLab, Co., Northampton, MA). […]
# Steady state fluorescence measurements […]
# Maximum emission at 440 nm was replotted as a function of nucleotide concentration and analysed
smiles,measurement,value
CNc1ccccc1C(=O)O[C@H]1[C@@H](O)[C@H](n2cnc3c(=O)[nH]c(N)nc32)O[C@@H]1COP(=O)(O)OP(=O)(O)OP(=O)(O)O [mant-GTP],Kd,24 µM
